Legend:
[1] = system: SCD-1, FAS and ELOVL6 expression in liver; assay: Liver lipogenic gene expression after 6-hour lipid infusion; assay type: in vivo; conditions: 6-hour infusion, compared to vehicle-infused mice
From the text: FIG. 5A-5E reflects the regulation of SCD-1 promoter activity in vivo. […] PUF: polyunsaturated fatty acid response element. FIG. 5B is the regulation of WT and mutant SCD-1 promoter activities by fatty acids. AA: arachidonic acid. FIG. 5C is the regulation of wild-type and mutant SCD-1 promoter activities by plasma lipids. Plasma lipids extracted from WT or FABP^−/− (DK) mice were used to treat FAO cells Infected with WT or mutant SCD-1 promoter-carrying adenoviruses and luciferase assays performed as described in the Examples. FIG. 5D presents the in vivo regulation of wild-type and mutant SCD-1 promoter activities. Luciferase assays were performed on liver tissues of WT or DK mice injected with WT or mutant SCD-1 reporter carrying adenoviruses. FIG. 5E is liver gene expression in mice infused with vehicle, TG:palmitate or TG:palmitoleate. *, p<0.05. […] INTRALIPID® fatty acid lipid infusion solution with 2 mM triglycerides:palmitate or palmitoleate were prepared using a previously described protocol with modifications (Stein et al., 1997). Briefly, lipids were dissolved in a solvent containing 5% glycerol and 0.72% phosphocholine in 0.9% saline, heated at 80° C. for 10 min, and then sonicated 1 min four times. For TG:palmitoleate, the heating was omitted to avoid oxidization of the lipids. Lipids stay in suspension for a week, so to prevent clogging the preparations must be vortexed well before loading the syringe and tubing. Seven days before lipid infusion, mice were anesthetized and an indwelling catheter inserted in the left internal jugular vein, then the animals were left to recover the following days. After overnight fasting, lipids were infused at a rate of 500 μl/kg/min for six hours. At the end of the infusion, insulin (1 U/Kg) was injected into mice via the infusion tubing and tissues were collected for subsequent gene expression and immunoblotting analyses. To determine serum FFA level during lipid infusion, blood was collected from mouse tails at different time intervals and spun down to collect plasma. Serum FFAs were determined using a commercial kit (Wako Chem.). TG:palmitate and TG:palmitoleate are difficult to dissolve at a concentration that are compatible with the infusion rate of hyperinsulinemic-euglycemic clamp study and yet maintain efficient delivery of these lipids. Therefore fatty acid: palmitoleate was used to infuse mice for clamp study. Palmitoleate was dissolved in saline containing 2% BSA (vehicle) at 15 mM with repeated sonications and was infused through the tubing at a rate of 3.3 μl/min for two hours. A standard hyperinsulinemic-euglycernic clamp was then performed as previously described (Furuhashi et al., 2007). Vehicle or palmitoleate solution was used to dissolve tracer ^3H-glucose and so lipid was also infused at 3.3 μl/min throughout the 4-hour period of clamp study.

[2] = system: insulin receptor, IRS-1, IRS-2 and AKT phosphorylation in liver; assay: Insulin signaling in liver of lipid-infused mice (immunoblotting); assay type: in vivo; conditions: TG lipid infusion, compared to vehicle controls
From the text: (§1) FIGS. 7A-7G show data on the regulation of insulin signaling and glucose metabolism by palmitoleate. FIG. 7A is the basal and insulin-stimulated phosphorylation of insulin receptor (IR), insulin receptor substrate-1 (IRS-1) and -2 (IRS-2) and AKT in liver of mice infused with vehicle (Veh), TG:palmitoleate (C16:1n7) or TG:palmitate (C16). Representative blots are shown and quantifications on the right are averaged results of three mice in each treatment group. […] Representative blots are shown and quantifications on the right are averaged results of three mice in each treatment group.
(§2) The left panel presents the insulin-stimulated phosphorylation of insulin receptor and AKT in liver of mice infused with vehicle or palmitoleate. […] Mice were infused with vehicle or palmitoleate at 3.3 μl/min for six hrs, and insulin (1 U/Kg) was injected through the infusing tubing. Three minutes after insulin injection, tissues were collected and immunoblotting analyses were performed.
(§3) The present invention also provides for the regulation of insulin action by increased circulating palmitoleate. To study whether palmitoleate regulates systemic metabolic responses, lipid infusions were administered in conscious mice. Lipid infusion has been used widely to investigate the relationship between plasma FFAs and insulin resistance, but almost all studies using this protocol utilized preparations of natural lipid products containing a variety of fatty acids. Kim et al., 114 J. Clin. Invest. 823-27 (2004); Kim et al., 277 J. Biol. Chem. 32915-22 (2002); Yu et al., 277 J. Biol. Chem. 50230-36 (2002). […]
(§4) Samples of 200 μl serum were collected using heparin-coated glass tubes and spun at 13,000 g in a microcentrifuge to separate the plasma. […] Tissue protein lysates was separated with SDS-PAGE gels and phosphorylated or total proteins were detected with the following antibodies: phospho AKT Serine 473, AKT, insulin receptor, phospho-tyrosine (Santa Cruz Biotech.); IRS-1 and IRS-2 (Upstate); phospho-GSK and GSK (Cell Signaling Tech.); phospho-insulin receptor from (Calbiocbem). […]

[3] = target: T1, aP2 (Mus musculus, UniProt P04117); assay: Lipogenic gene expression in adipose tissue of mice treated with aP2 inhibitor; assay type: in vivo; conditions: WT mice on HFD, oral gavage 40 mg/kg/day for two months
T1 construct: from tissue; host or cells: epididymal fat pads of mice on high-fat diet (in vivo oral dosing)
T1 sequence (P04117 1-132): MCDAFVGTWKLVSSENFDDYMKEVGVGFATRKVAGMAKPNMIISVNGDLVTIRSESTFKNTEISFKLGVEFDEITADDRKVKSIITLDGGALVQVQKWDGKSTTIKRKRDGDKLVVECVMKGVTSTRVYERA
Experimental: FIGS. 6A-6D present data related to the regulation of lipogenic genes in adipose and liver of WT and FABP^−/− mice. […] Gene expression patterns in epididymal fat pad were determined by quantitative real-time PCR. FIG. 6B is regulation of lipogenic gene promoter activities by FABPs in differentiated adipocytes. […] Gene expressions in epididymal fat pads from mice treated with vehicle or aP2 inhibitor were determined with quantitative real-time PCR. […] relates to the differential regulation of lipogenic gene expression in adipose and liver tissues. Levels of the mRNAs in liver and epididymal fat pad from mice fed with high-fat diet were determined with quantitative real-time PCR. ACC1, acetyl-CoA carboxylase1; FAS, fatty acid synthase; SCD-1, stearoyl-CoA desaturase; ELOVL6, fatty acid elongase 6; DGAT1, acyl-CoA:diacylglycerol acyltransferase 1. *, p<0.05.
To directly address this, adipogenic cell lines from FABP−/−mice were differentiated them into adipocytes (FIG. 19). […] This observation agrees with that observed in adipose tissue of FABP-deficient mice. This pattern was tested in vivo in an alternative experimental system where aP2 function in mice is blocked through an orally administrated synthetic inhibitor. […] Furuhashi et al., 2007. […]

[4] = system: SCD-1 promoter; assay: SCD-1 promoter-driven luciferase reporter in FAO hepatoma cells; assay type: cell-based, murine; conditions: hepatocytes (FAO) treated with a single fatty acid, 300 μM
Experimental: This possibility was tested using several highly sensitive assays to probe the functional profile and activities of plasma lipids. SCD-1 was chosen as a target because it was determined previously that the suppression of hepatic SCD-1 activity is a major alteration in FABP-deficient mice under diet-induced or genetic obesity. Cao et al., 2006; Maeda et al., 2005. Hepatic SCD-1 expression is regulated by a variety of hormones and nutritional factors such as insulin, glucose, and polyunsaturated fatty acids (PUFAs). Ntambi & Miyazaki, 43 Prog. Lipid Res. 91-104 (2004). […] Chu et al., 26 Mol. Cell Biol. 6786-98 (2006); Ntambi, 40 J. Lipid Res. 1549-58 (1999). The 1.5 kb murine SCD-1 promoter was placed in front of a luciferase reporter and inserted into an adenovirus construct. FAO rat hepatoma cells infected with this adenovirus verified the responsiveness of this reporter to PUFA, consistent with previous observations (FIG. 15). Because this assay system was adapted to a microplate format, very small amounts of lipids were required for experimentation. This system allowed direct testing for the effects of lipids extracted from plasma of WT and FABP-deficient animals.
Lipids were extracted from whole plasma and applied to liver cells expressing the SCD-1 promoter reporter gene. […] To control for any difference in the amount of lipids extracted from plasma and to mimic the in vivo regulation of SCD-1 expression, mixtures of FFAs were generated with the same molar ratio detected in WT or FABP-deficient plasma lipids using the major fatty acids listed in FIG. 2C. […]
as §4

[5] = system: insulin receptor signaling in muscle tissue; assay: Insulin signaling in muscle of lipid-infused mice (immunoblotting); assay type: in vivo; conditions: TG lipid infusion
From the text: as §1, §2, §3, §4

In the case of CCCCCCCCCCCCCCCC(=O)OCC(COC(=O)CCCCCCCCCCCCCCC)OC(=O)CCCCCCCCCCCCCCC [TG-palmitate, reference compound], the “SCD-1 expression in liver” value [1] is reported as “increase”, the “fatty acid elongase 6 (ELOVL6) expression in liver” value [1] is reported as “increase” and the “fatty acid synthase (FAS) expression in liver” value [1] is reported as “increase”. The “proximal insulin-signaling pathway in liver (insulin receptor, IRS-1, IRS-2, AKT)” value [2] was “suppressed”.

With CCCCCC/C=C\CCCCCCCC(=O)OCC(COC(=O)CCCCCCC/C=C\CCCCCC)OC(=O)CCCCCCC/C=C\CCCCCC [TG-palmitoleate] the “SCD-1 expression in liver” value [1] was “substantial decrease”, the “fatty acid elongase 6 (ELOVL6) expression in liver” value [1] was “substantial decrease” and the “fatty acid synthase (FAS) expression in liver” value [1] was “substantial decrease”. The “proximal insulin-signaling pathway in liver (insulin receptor, IRS-1, IRS-2, AKT)” value [2] was “strongly potentiated”.

With CCc1c(-c2ccccc2)c(-c2ccccc2)nn1-c1ccccc1-c1cccc(OCC(=O)O)c1 [aP2 inhibitor] the “lipogenic gene expression in adipose tissues” value [3] was “increased”.

CCCCC/C=C\C/C=C\C/C=C\C/C=C\CCCC(=O)O [arachidonic acid, reference compound] was tested, and the “SCD-1 promoter-driven reporter activity” value [4] was “suppressed”.

In the case of CCCCCCCCCCCCCCCC(=O)O [palmitate, reference compound], the “insulin receptor signaling in muscle” value [5] is reported as “impaired”.

For C16:1n7-palmitoleate, the “insulin receptor signaling in muscle” value [5] was “enhanced”.
